# Columns and labels:
# Assay type in all cases: cell-based
# [1] = target: T1, human prostanoid FP receptor (Homo sapiens, UniProt P43088); assay: FLIPR Ca2+ signaling antagonist assay, FP receptor stable cell line; conditions: HEK-293 EBNA stable cell line; standard agonist 17-phenyl-PGF2α; NA = inactive (no antagonism or Kb 10,000 nM); PAg, Ag not defined
# T1 construct: expressed in transfected cells
# Summary of the method: (§1)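 Peak Fluo-4 fluorescence (ex 470–495, em 515–575 nm) was read for 3.5 min on FLIPR after agonist injection and expressed relative to 10^−6 M standard agonist. Cells were HEK-293 EBNA transfectants. Test compound was added 4.5 min beforehand at 0.1–30 μM, or 0.067–1 μM for TP.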
# [2] = target: T2, human prostanoid DP1 receptor (Homo sapiens, UniProt Q13258); assay: FLIPR Ca2+ signaling antagonist assay, DP1 receptor stable cell line; conditions: HEK-293 EBNA stable cell line; standard agonist BW 245C; NA = inactive (no antagonism or Kb 10,000 nM); PAg, Ag not defined
# T2 construct: expressed in transfected cells
# T2 sequence (Q13258 1-359): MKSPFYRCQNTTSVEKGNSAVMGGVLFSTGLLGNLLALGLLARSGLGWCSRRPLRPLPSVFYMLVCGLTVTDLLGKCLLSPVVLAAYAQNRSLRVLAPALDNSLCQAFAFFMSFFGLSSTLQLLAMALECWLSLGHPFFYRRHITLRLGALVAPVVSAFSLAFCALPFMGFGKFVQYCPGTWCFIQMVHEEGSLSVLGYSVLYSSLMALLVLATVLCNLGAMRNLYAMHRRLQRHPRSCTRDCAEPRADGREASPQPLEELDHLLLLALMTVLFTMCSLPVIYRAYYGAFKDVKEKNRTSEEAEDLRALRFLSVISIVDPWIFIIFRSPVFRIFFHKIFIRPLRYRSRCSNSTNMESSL
# Summary of the method: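 Functional antagonism measured by Ca2+ flux at 37 °C. Agonist ranges were 10^−11 to 10^−5 M, or 10^−12 to 10^−6 M for TP with U-46619; PGE2 for EP1/EP3, BW 245C for DP1. Compound spanned 0.1–30 μM except TP, 0.067–1 μM.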
# [3] = target: T3, human prostanoid EP4 receptor (Homo sapiens, UniProt P35408); assay: FLIPR Ca2+ signaling antagonist assay, EP4 receptor stable cell line; conditions: HEK-293 EBNA stable cell line; standard agonist PGE2; NA = inactive (no antagonism or Kb 10,000 nM); PAg, Ag not defined
# T3 construct: expressed in transfected cells
# Summary of the method: as §1
# [4] = target: T4, human prostanoid TP receptor (Homo sapiens, UniProt P21731); assay: FLIPR Ca2+ signaling antagonist assay, TP receptor stable cell line; conditions: HEK-293 EBNA stable cell line; standard agonist U-46619; NA = inactive (no antagonism or Kb 10,000 nM); PAg, Ag not defined
# T4 construct: expressed in transfected cells
# T4 sequence (P21731 1-343): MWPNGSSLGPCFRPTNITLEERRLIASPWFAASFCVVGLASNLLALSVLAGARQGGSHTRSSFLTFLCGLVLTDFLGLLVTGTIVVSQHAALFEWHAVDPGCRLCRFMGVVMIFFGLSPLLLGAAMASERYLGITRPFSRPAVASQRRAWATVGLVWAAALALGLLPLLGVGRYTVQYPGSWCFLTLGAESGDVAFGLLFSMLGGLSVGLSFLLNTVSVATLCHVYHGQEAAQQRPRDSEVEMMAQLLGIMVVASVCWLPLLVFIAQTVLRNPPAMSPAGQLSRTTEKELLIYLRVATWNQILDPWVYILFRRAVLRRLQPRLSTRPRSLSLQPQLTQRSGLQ
# Summary of the method: (§2)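 HEK-293 EBNA cells stably expressing receptor (EP3 co-expressed with chimeric Gqi; EP1, IP, TP without exogenous G protein), Fluo-4 loaded, read on FLIPR at 37° C. Antagonist added 4.5 min before standard agonist (EP1/EP3 PGE2, IP cicaprost 10^−11–10^−5 M; TP U-46619 10^−12–10^−6 M); antagonist 0.1–30 μM, TP 0.067–1 μM; peak fluorescence relative to 10^−6 M agonist.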
# [5] = target: T5, human prostanoid EP2 receptor (Homo sapiens, UniProt P43116); assay: FLIPR Ca2+ signaling antagonist assay, EP2 receptor stable cell line; conditions: HEK-293 EBNA stable cell line; standard agonist PGE2; NA = inactive (no antagonism or Kb 10,000 nM); PAg, Ag not defined
# T5 construct: expressed in transfected cells
# Method: The above compounds were tested for PG antagonist activity as follows using human recombinant prostanoid receptor (DP1, EP1-4, FP, IP and TP) stable cell lines:
# In order to measure the response of Gs and Gi coupled prostanoid receptors as a Ca^2+ signal, chimeric G protein cDNAs were used. Stable cell lines over-expressing human prostanoid DP1, EP1-4, FP, IP, and TP receptors were established as follows:
# Briefly, human prostanoid DP1, EP2, and EP4 receptor cDNAs were co-transfected with chimeric Gqs cDNA containing a haemagglutanin (HA) epitope; human prostanoid EP3 receptors were co-transfected with chimeric Gqi-HA; human EP1, FP, IP, and TP receptor cDNAs were expressed with no exogenous G-proteins. Gqs and Gqi chimeric cDNAs (Molecular Devices, Sunnyvale, Calif., U.S.A.), as well as cDNAs of prostanoid receptors, were cloned into a pCEP4 vector with a hygromycin B selection marker. Transfection into HEK-293 EBNA (Epstein-Barr virus nuclear antigen) cells was achieved by the FuGENE 6 transfection Reagent (Roche Applied Science, Indianapolis, Ind., USA). Stable transfectants were selected according to hygromycin resistance. Because Gqs and Gqi contained an HA epitope, G-protein expression was detected by Western blotting analysis using anti-mouse HA monoclonal antibody and horseradish peroxidase (HRP)-conjugated secondary antibody, while functional expression of prostanoid receptors was detected by FLIPR screening (Matias et al., 2004). These stable cell lines were validated using previously published antagonists at 10 μM against serial dilutions of standard agonists by FLIPR functional assays for Ca^2+ Signaling (as described below).
# Ca^2+ signaling studies were performed using a FLIPR TETRA system (Molecular Devices, Sunnyvale, Calif., USA) in the 384-format. This is a high-throughput instrument for cell-based assays to monitor Ca^2+ signaling associated with GPCRs and ion channels. Cells were seeded at a density of 5×10^4 cells/well in BioCoat poly-D-lysine coated, black wall, clear bottom 384-well plates (BD Biosciences, Franklin lakes, NJ, USA) and allowed to attach overnight in an incubator at 37° C. The cells were then washed twice with HBSS-HEPES buffer (Hanks' balanced salt solution without bicarbonate and phenol red, 20 mM HEPES, pH 7.4) using an ELx405 Select CW Microplate Washer (BioTek, Winooski, Vt., USA). After 60 min of dye-loading in the dark using the Ca^2+-sensitive dye Fluo-4AM (Invitrogen, Carlsbad, Calif., USA), at a final concentration of 2×10^−6M, the plates were washed 4 times with HBSS-HEPES buffer to remove excess dye and leaving 50 μl of buffer in each well. The plates were then placed in the FLIPR TETRA instrument and allowed to equilibrate at 37° C. AGN-211377 was added in a 25 μl volume to each well to give final concentrations of 0.1 μM, 0.3 μM, 1 μM, 3 μM, 10 μM, and 30 μM; or 0.067 μM, 0.1 μM, 0.2 μM, 0.3 μM, 0.67 μM, and 1 μM for cells over-expressing TP receptors. After 4.5 minutes, a 7-point serial dilution of the standard agonist for the corresponding receptor, in a 25 μl volume was injected at the final concentrations from 10^−11M to 10^−5M in 10-fold serial dilution increments for cells expressing human recombinant DP1, EP1, EP2, EP3, EP4, FP, and IP receptors. The dose range for the standard agonist for human recombinant TP receptors was from 10^−12 M to 10^−6 M. HBSS-HEPES buffer was used as the negative control for the standard agonists. Cells were excited with LED (light emitting diode) excitation at 470-495 nm and emission was measured through an emission filter at 515-575 nm. Assay plates were read for 3.5 minutes using the FLIPR^TETRA. The peak increase in fluorescence intensity was recorded for each well. On each plate, negative controls, dose response of positive controls, and co-treatments of antagonist-agonist for each dose were in triplicates.
# Standard agonists were as follows: DP=BW 245C, EP1-EP4=PGE2, FP=17-phenyl-PGF2α, IP=Cicaprost, and TP=U-46619. […]
# [6] = target: T6, human prostanoid IP receptor (Homo sapiens, UniProt P43119); assay: FLIPR Ca2+ signaling antagonist assay, IP receptor stable cell line; conditions: HEK-293 EBNA stable cell line; standard agonist Cicaprost; NA = inactive (no antagonism or Kb 10,000 nM); PAg, Ag not defined
# T6 construct: expressed in transfected cells
# Summary of the method: as §2
# [7] = target: T7, human prostanoid EP1 receptor (Homo sapiens, UniProt P34995); assay: FLIPR Ca2+ signaling antagonist assay, EP1 receptor stable cell line; conditions: HEK-293 EBNA stable cell line; standard agonist PGE2; NA = inactive (no antagonism or Kb 10,000 nM); PAg, Ag not defined
# T7 construct: expressed in transfected cells
# T7 sequence (P34995 1-402): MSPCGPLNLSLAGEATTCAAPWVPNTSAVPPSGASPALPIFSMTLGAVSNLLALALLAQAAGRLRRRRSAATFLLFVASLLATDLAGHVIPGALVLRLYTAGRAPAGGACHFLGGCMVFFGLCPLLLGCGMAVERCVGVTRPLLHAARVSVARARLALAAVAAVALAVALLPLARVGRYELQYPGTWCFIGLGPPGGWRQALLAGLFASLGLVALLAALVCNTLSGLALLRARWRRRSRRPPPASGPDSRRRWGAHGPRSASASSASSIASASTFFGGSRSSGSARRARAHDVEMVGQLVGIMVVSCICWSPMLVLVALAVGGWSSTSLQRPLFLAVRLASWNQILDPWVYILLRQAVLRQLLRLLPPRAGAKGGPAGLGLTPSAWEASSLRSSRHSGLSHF
# Summary of the method: as §2
# T5 sequence (P43116 whole entry): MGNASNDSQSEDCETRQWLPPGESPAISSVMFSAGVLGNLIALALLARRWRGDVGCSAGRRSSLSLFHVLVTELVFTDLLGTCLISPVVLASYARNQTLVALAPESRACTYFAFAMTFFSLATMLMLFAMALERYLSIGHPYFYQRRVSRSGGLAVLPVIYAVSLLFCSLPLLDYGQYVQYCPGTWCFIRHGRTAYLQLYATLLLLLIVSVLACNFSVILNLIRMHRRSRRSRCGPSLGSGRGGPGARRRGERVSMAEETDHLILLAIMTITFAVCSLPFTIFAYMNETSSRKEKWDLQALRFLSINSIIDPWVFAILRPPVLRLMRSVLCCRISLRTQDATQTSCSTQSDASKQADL
# T1 sequence (P43088 whole entry): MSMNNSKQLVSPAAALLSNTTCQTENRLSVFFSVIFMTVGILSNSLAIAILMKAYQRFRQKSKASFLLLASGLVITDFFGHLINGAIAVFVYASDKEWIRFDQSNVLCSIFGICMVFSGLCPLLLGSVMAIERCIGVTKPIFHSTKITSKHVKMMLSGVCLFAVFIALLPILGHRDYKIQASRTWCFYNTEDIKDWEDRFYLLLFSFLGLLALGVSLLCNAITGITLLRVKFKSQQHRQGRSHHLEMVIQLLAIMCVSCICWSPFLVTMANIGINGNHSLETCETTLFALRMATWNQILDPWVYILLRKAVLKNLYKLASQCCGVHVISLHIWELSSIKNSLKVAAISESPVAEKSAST
# T3 sequence (P35408 whole entry): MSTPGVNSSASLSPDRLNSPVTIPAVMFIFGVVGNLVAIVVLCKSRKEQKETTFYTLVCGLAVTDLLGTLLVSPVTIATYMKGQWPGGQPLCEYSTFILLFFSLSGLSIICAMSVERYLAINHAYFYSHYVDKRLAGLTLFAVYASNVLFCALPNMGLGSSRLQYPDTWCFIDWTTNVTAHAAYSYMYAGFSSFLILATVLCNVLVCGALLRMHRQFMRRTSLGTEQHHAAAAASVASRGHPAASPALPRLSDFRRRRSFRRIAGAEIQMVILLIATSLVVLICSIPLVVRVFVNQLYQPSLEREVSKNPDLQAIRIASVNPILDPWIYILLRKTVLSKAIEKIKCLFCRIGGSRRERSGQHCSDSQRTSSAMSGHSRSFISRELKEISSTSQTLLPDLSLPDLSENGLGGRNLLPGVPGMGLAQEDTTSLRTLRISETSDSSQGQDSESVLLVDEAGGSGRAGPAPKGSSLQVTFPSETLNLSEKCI
# T6 sequence (P43119 whole entry): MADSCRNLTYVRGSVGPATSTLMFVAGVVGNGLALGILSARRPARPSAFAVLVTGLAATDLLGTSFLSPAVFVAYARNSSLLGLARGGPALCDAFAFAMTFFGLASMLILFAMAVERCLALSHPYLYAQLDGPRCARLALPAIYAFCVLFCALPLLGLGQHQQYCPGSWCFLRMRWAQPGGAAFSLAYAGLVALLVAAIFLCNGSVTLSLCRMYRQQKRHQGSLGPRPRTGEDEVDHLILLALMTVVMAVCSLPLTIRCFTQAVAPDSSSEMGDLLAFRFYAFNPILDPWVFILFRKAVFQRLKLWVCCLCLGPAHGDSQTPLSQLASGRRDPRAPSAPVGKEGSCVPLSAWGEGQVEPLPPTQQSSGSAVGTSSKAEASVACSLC
Kb [1],EP4 (FLIPR) Kb [3],TP (FLIPR) Kb [4],EP2 (FLIPR) Kb [5],IP (FLIPR) Kb [6],EP1 (FLIPR) Kb [7],Kb [2],SMILES,DP1 (FLIPR) Kb [2],Kb [3],Kb [4],Kb [5],Kb [6],Kb [7]
170 nM,Ag,Ag,PAg,Ag,Ag,–,"Cc1cc(CCC(=O)O)nn1Cc1cc(Cl)ccc1OCCCCC(C)C [Example 36, 3-[1-(5-Chloro-2-(5-methylhexyloxy)benzyl)-5-methyl-1H-pyrazol-3-yl]-propionic acid]",PAg,–,–,–,–,–
200 nM,–,–,–,–,–,300 nM,"COc1ccc(COc2ccc(Cl)cc2Cn2nc(CCC(=O)O)cc2C)cc1 [Example 31, 3-[1-(5-Chloro-2-(4-methoxybenzyloxy)benzyl)-5-methyl-1H-pyrazol-3-yl]-propionic acid]",–,7400 nM,9 nM,2500 nM,1200 nM,300 nM

SMILES,Kb [1],EP4 (FLIPR) Kb [3],TP (FLIPR) Kb [4],EP2 (FLIPR) Kb [5],IP (FLIPR) Kb [6],EP1 (FLIPR) Kb [7],Kb [2],DP1 (FLIPR) Kb [2],Kb [3],Kb [4],Kb [5],Kb [6],Kb [7]
"CCC(CC)COc1ccc(OC(F)(F)F)cc1Cn1nc(CCC(=O)O)cc1C [Example 48, 3-[1-[2-(2-Ethyl-butoxy)-5-trifluoromethoxy-benzyl]-5-methyl-1H-pyrazol-3-yl]-propionic acid]",150 nM,–,–,–,–,–,–,PAg,400 nM,40 nM,3000 nM,2300 nM,80 nM

# From patent US9394284B2, “Compounds act at multiple prostaglandin receptors giving a general anti-inflammatory response” (Allergan, Inc., priority 2010, dated 2016)
